Results: BindingDB's records for doi:10.1016/j.bmcl.2005.12.051 (Procter & Gamble Pharmaceuticals, 2006)

Target: T1, Tyrosine-protein phosphatase non-receptor type 1 [1-298] (Homo sapiens, UniProt P18031)
T1 construct: 1-298
T1 sequence (P18031 whole entry): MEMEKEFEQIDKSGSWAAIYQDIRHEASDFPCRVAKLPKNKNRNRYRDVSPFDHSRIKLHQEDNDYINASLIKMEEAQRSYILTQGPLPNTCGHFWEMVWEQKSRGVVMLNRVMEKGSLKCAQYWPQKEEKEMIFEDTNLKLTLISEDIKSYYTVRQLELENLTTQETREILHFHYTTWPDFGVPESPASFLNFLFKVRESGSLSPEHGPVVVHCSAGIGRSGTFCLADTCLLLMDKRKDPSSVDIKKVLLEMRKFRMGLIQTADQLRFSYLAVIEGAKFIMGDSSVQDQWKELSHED
Test: Phosphatase Inhibition Assay
Settings: for IC50: pH 7, 22 °C
Description: The activity of PTP1B enzyme was assayed with DiFMUP as substrate. Hydrolysis of substrate was monitored on a Victor V plate reader (Wallac). Kinetic measurements were measured using 3-5 concentrations of inhibitor around the IC50 over a range of substrate concentrations (3-500 uM). Data were used to determine Km/Ki/competitive inhibition using GraphPad Prism software.

Compound | Ki [µM] | IC50 [µM]
Cn1nc(-c2ccccc2)cc1NS(=O)(=O)O [N-(1-methyl-3-phenyl-1H-pyrazol-5-yl)sulfamic acid] | > 500 | –
CNC(=O)[C@@H]1Cc2ccc(NS(=O)(=O)O)cc2CN1C(=O)C=Cc1coc2ccccc12 [ammonium N-[(3S)-2-[(2E)-3-(1-benzofuran-3-yl)prop-2-enoyl]-3-(methylcarbamoyl)-1,2,3,4-tetrahydroisoquinolin-7-yl]sulfamate] | – | 24.9
CNC(=O)[C@@H]1Cc2ccc(NS(=O)(=O)O)cc2CN1C(=O)N[C@@H](Cc1ccccc1)C(=O)OC(C)(C)C [ammonium N-[(3S)-2-{[(2S)-1-(tert-butoxy)-1-oxo-3-phenylpropan-2-yl]carbamoyl}-3-(methylcarbamoyl)-1,2,3,4-tetrahydroisoquinolin-7-yl]sulfamate] | – | > 500
